Assays:
[1] = fT>MIC in Mycobacterium tuberculosis infected mouse; assay type: functional
[2] = T>MIC in Mycobacterium tuberculosis infected mouse; assay type: functional
[3] = fCmax/MIC in Mycobacterium tuberculosis infected mouse; assay type: functional
[4] = fAUC/MIC in Mycobacterium tuberculosis infected mouse; assay type: functional
[5] = Cmax/MIC in Mycobacterium tuberculosis infected mouse; assay type: functional
[6] = AUC/MIC in Mycobacterium tuberculosis infected mouse; assay type: functional, Plasma

SMILES | fT>MIC [1] [%] | %T>MIC [2] [%] | fCmax/MIC [3] | fAUC/MIC [4] | Ratio [5] | RatioAUC/MIC [6]
COc1nc2ccc(Br)cc2cc1[C@@H](c1ccccc1)[C@@](O)(CCN(C)C)c1cccc2ccccc12 [BEDAQUILINE] | 0 | 80 | 0.1 | 1 | 10 | 100
CC(C)/N=c1\cc2n(-c3ccc(Cl)cc3)c3ccccc3nc-2cc1Nc1ccc(Cl)cc1 [CLOFAZIMINE] | 0 | 0 | 0.02 | <1 | 1 | 20
CC[C@@H](CO)NCCN[C@@H](CC)CO [ETHAMBUTOL] | 25 | 35 | 8 | 25 | 11 | 33
NNC(=O)c1ccncc1 [ISONIAZID] | 60 | 80 | 400 | 800 | 660 | 1300
OC(c1cc(C(F)(F)F)nc2c(C(F)(F)F)cccc12)C1CCCCN1 (centres undefined) [MEFLOQUINE] | 0 | 0 | 0.1 | 1.6 | 0.5 | 8
COc1c(N2C[C@@H]3CCCN[C@@H]3C2)c(F)cc2c(=O)c(C(=O)O)cn(C3CC3)c12 [MOXIFLOXACIN] | 80 | 100 | 10 | 53 | 17 | 88
O=[N+]([O-])c1cn2c(n1)OC[C@@H](OCc1ccc(OC(F)(F)F)cc1)C2 [PRETOMANID] | 21 | 58 | 2 | 16 | 20 | 166
NC(=O)c1cnccn1 [PYRAZINAMIDE] | 19 | 25 | 15 | 21 | 25 | 35
CO[C@H]1/C=C/O[C@@]2(C)Oc3c(C)c(O)c4c(O)c(c(/C=N/N5CCN(C)CC5)c(O)c4c3C2=O)NC(=O)/C(C)=C\C=C\[C@H](C)[C@H](O)[C@@H](C)[C@@H](O)[C@@H](C)[C@H](OC(C)=O)[C@@H]1C [RIFAMPIN] | 100 | 100 | 20 | 300 | 100 | 1500

Source: ChEMBL document CHEMBL2412982, “A medicinal chemists' guide to the unique difficulties of lead optimization for tuberculosis” (2013)
